This assay has as its system microglia in the nucleus accumbens. In words: Microglia activation in nucleus accumbens (Iba1 immunostaining, morphology). Type of assay: in vivo, mouse. As to the method:
Resting microglia have a ramified morphology but continuously survey the healthy brain and respond to a variety of activation signals by undergoing progressive morphological and functional changes (Kettenmann et al., 2011). Cocaine administration could activate microglia in the NAc, which could lead to the observed elevation of TNFα. Using the microglia marker Iba1, microglia was labeled in adult mice, 24 hours after a single cocaine injection, 24 hrs after 5 days of daily cocaine injections, or after 10 days of drug abstinence. Although no change was identified in the number of microglia in the NAc at any time point (FIG. 10E), Iba1 intensity was increased in microglia by 5 days of cocaine, and after a period of abstinence (FIG. 6C-D), indicating activation. […] In contrast to the change in microglia, no activation of astrocytes was observed, as judged by GFAP expression. […] This is consistent with the observation that TNFα is derived from microglia and not astrocytes during sensitization.
Mice (8-10 weeks) were perfused and their brains submerged overnight in 4% PFA, cryoprotected with 30% sucrose, and cut in 30 μm thick coronal slices using a cryostat. […] Images of the ventral striatum (nucleus accumbens core and shell) were acquired with a 40× or 60× objective and stacks of 25-30 optical sections (1 μm per section) of depth were Z-projected into a single window and analysed using ImageJ software (NIH).
The number of Iba1+ microglia were manually counted from 212×212 μm (60× objectives) or 317×317 μm (40× objectives) images. TNFα intensity was measured using the mean grey value of the entire image while Iba1 intensity measurements were obtained using a thresholded area to highlight only the microglia. Cell body area (μm^2) was measured based on Iba1 staining and using the freehand selection tool. […] The following parameters were analyzed for 40 microglia per group: total process length (sum of length of all processes), total process volume, process diameter and number of branch points and terminals. […]

The record followed here is patent US10328092B2, “Methods and compositions for treatment of drug addiction” (The Royal Institution for the Advancement of Learning / …, priority 2015, dated 2019).

`COC(=O)[C@H]1[C@@H](OC(=O)c2ccccc2)C[C@@H]2CC[C@H]1N2C` [cocaine]: the “microglia cell body area” value (5 d cocaine) was 37.2±0.9 μm^2. Also, for the setting “after 5 days cocaine”, the “decrease of total length of microglia processes” value worked out at 20%.
For monophosphoryl lipid A [MPLA], the “Iba1 intensity in nucleus accumbens” value (24 hours after a single MPLA injection 10 μg, after 10 day withdrawal from cocaine) is recorded as “significantly increased”.
